Measured values published in ChEMBL document CHEMBL6153170 (J Med Chem, 2025).

Legend:
[1] = molecular target: Programmed cell death protein 1/Programmed cell death 1 ligand 1 (Homo sapiens, UniProt Q9NZQ7); assay: Inhibition of PD-1/PD-L1 (unknown origin) protein-protein interaction by HTRF assay; format: protein-complex assay
[2] = test system: HepG2; assay: cells; details: Homo sapiens, HepG2, 48 h
[3] = molecular target: T1, Histone deacetylase 7 (Homo sapiens, UniProt Q8WUI4); assay: Inhibition of N-terminal GST-tagged recombinant human HDAC7 (501 to 952 residues) extracted from baculovirus expression system using Ac-Leu-Gly-Lys (Tfa)-AMC as substrate preincubated for 5 mins followed by substrate addition and measured after 30 mins by fluorescence microplate reader analysis
T1 sequence (Q8WUI4 whole entry): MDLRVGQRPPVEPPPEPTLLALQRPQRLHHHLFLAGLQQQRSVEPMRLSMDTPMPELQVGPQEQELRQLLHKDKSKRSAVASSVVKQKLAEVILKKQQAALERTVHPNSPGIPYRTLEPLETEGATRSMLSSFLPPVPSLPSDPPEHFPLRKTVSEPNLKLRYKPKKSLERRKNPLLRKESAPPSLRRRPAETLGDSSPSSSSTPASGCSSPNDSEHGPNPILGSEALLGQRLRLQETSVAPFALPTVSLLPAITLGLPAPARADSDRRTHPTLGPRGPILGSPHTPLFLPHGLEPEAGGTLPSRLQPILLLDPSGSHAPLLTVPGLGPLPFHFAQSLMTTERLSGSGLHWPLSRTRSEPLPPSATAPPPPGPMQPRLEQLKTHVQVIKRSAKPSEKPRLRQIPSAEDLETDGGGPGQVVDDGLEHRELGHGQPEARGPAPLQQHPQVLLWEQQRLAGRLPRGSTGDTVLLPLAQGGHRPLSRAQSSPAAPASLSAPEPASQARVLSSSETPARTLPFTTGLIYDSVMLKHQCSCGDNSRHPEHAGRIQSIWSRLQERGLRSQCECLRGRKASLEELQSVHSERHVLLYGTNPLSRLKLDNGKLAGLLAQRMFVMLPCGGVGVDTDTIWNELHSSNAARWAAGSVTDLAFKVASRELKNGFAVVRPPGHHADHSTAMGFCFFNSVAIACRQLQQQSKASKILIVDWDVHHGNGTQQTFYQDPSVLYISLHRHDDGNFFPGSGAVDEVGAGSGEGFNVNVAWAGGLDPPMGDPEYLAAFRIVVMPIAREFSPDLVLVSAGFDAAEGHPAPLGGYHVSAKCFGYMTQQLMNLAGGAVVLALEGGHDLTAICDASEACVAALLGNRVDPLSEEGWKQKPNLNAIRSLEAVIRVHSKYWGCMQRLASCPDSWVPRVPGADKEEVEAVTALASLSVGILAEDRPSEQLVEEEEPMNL

[4] = molecular target: T2, Histone deacetylase 8 (Homo sapiens, UniProt Q9BY41); assay: Inhibition of C-terminal His-tagged recombinant full length human HDAC8 extracted from baculovirus infected Sf9 insect cells preincubated for 5 mins followed by substrate addition and measured after 30 mins by fluorescence microplate reader analysis
T2 sequence (Q9BY41 whole entry): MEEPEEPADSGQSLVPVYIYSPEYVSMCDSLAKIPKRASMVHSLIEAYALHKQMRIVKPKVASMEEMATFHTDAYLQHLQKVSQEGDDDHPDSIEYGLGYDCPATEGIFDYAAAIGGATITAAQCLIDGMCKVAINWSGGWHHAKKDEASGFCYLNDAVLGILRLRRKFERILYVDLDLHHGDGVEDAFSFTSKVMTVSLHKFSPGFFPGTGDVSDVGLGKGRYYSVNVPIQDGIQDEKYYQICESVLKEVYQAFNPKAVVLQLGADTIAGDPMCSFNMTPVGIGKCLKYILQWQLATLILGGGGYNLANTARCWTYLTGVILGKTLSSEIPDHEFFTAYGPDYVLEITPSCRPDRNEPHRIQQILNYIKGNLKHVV

[5] = test system: B16-F10; assay: cells; details: Mus musculus, B16-F10, 48 h
[6] = test system: MCF7; assay: cells; details: Homo sapiens, MCF7, 48 h
[7] = test system: Jurkat; assay: cells; details: Homo sapiens, 72 h
[8] = molecular target: T3, Protein deacetylase HDAC6 (Homo sapiens) (UniProt Q9UBN7); details: Sf9, dose 100.0 nM, time 30.0 min
T3 sequence (whole entry): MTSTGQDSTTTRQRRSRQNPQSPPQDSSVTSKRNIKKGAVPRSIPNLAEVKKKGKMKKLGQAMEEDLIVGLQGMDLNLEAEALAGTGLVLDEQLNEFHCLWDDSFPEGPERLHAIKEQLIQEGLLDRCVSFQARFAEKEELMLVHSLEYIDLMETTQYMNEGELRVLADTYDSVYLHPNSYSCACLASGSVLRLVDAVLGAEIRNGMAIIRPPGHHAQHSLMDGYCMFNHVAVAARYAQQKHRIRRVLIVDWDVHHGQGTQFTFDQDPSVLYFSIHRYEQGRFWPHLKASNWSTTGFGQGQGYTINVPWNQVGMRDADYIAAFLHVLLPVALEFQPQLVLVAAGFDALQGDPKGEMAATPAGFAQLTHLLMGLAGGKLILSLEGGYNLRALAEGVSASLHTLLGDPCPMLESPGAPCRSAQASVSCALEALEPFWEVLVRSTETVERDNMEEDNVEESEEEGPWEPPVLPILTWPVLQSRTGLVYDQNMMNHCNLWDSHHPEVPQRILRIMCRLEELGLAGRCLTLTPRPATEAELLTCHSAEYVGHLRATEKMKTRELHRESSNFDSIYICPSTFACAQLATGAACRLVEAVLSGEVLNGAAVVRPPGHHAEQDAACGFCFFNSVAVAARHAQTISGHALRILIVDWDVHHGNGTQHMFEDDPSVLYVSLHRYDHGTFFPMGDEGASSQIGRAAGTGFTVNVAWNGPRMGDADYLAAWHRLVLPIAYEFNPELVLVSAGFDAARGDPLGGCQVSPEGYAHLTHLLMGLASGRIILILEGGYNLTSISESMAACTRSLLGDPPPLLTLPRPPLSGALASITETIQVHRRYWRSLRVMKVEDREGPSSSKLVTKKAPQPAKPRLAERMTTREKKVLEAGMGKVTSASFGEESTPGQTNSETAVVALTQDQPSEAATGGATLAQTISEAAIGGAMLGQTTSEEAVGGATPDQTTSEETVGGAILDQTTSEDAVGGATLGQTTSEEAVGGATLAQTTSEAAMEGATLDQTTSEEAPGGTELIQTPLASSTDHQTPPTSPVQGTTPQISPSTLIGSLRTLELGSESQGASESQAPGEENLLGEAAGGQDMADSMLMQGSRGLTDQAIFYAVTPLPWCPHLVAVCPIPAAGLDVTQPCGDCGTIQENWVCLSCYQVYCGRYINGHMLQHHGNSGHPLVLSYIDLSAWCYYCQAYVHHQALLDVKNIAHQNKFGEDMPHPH

Chain of Programmed cell death protein 1/Programmed cell death 1 ligand 1 (Q15116 whole entry): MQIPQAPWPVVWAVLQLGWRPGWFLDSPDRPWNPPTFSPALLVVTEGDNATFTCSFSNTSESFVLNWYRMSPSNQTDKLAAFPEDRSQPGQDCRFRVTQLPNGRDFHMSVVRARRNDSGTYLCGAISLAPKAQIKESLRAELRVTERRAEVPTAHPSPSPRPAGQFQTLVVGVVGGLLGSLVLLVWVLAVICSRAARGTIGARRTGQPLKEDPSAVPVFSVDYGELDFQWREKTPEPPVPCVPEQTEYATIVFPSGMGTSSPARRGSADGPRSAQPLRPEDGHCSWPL
Chain of Programmed cell death protein 1/Programmed cell death 1 ligand 1 (Q9NZQ7 whole entry): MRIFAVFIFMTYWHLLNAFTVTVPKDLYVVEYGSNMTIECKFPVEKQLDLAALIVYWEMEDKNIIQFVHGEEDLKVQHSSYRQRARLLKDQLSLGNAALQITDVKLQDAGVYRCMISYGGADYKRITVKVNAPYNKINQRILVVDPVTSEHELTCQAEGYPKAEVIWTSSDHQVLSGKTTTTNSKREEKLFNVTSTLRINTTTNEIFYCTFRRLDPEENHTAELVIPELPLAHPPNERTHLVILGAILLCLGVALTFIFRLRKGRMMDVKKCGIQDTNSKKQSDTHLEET

Row | Compound | IC50 [1] | inhibition [8] | also measured
1 | COc1nc(-c2cccc(-c3ccccc3)c2C)ccc1CNCC(=O)NO | 16.3 nM |  | IC50 [2]: > 10 µM; IC50 [3]: 10 µM; IC50 [4]: > 10 µM; IC50 [5]: 8.5 µM; IC50 [6]: > 10 µM; IC50 [7]: 9 µM
2 | COc1nc(OCc2cccc(-c3ccccc3)c2C)ccc1CNCCCCCC(=O)NO | 68.3 nM |  | 
3 | COc1nc(-c2cccc(-c3ccccc3)c2C)ccc1CNc1ccc(CC(=O)NO)cc1 | 64.3 nM |  | 
4 | COc1nc(OCc2cccc(-c3ccccc3)c2C)ccc1CNC(C)(C)CC(=O)Nc1ccccc1N | 90.6 nM | < 10% | 
5 | COc1nc(OCc2cccc(-c3ccccc3)c2C)ccc1CN1CCCC1C(=O)Nc1ccccc1N (stereo not drawn) | > 1000 nM |  | 
6 | COc1nc(OCc2cccc(-c3ccccc3)c2C)ccc1CNc1cccc(C(=O)NO)c1 | 100 nM |  | 
7 | COc1nc(-c2cccc(-c3ccccc3)c2C)ccc1CN1CCC(C(=O)Nc2ccccc2N)CC1 | 100 nM | < 10% | 
8 | COc1nc(OCc2cccc(-c3ccccc3)c2C)ccc1CN1CCC(C(=O)Nc2ccccc2N)C1 (stereo not drawn) | 72.2 nM |  | 
9 | CCCC[C@@H](NCc1ccc(OCc2cccc(-c3ccccc3)c2C)nc1OC)C(=O)Nc1ccccc1N | 100 nM | < 10% | 
10 | Nc1ccccc1NC(=O)c1ccc(CNC(=O)OCc2cccnc2)cc1 |  | < 10% | 
11 | COc1nc(-c2cccc(-c3ccccc3)c2C)ccc1CNc1ccc(CC(=O)Nc2ccccc2N)cc1 | 100 nM | < 10% | 
12 | COc1nc(OCc2cccc(-c3ccccc3)c2C)ccc1CNCC(=O)NO | 93.5 nM | < 10% | 
13 | COc1nc(OCc2cccc(-c3ccccc3)c2C)ccc1CNC1CCC(C(=O)Nc2ccccc2N)CC1 (stereo not drawn) | > 1000 nM | < 10% | 
14 | COc1nc(OCc2cccc(-c3ccccc3)c2C)ccc1CNCCCCCCC(=O)NO | 59.2 nM |  | IC50 [2]: > 10 µM; IC50 [3]: > 100 µM; IC50 [4]: > 10 µM; IC50 [5]: > 10 µM; IC50 [6]: > 10 µM; IC50 [7]: > 10 µM
15 | COc1nc(-c2cccc(-c3ccccc3)c2C)ccc1CNc1cc(C(=O)NO)c[nH]1 | 100 nM | < 10% | 
16 | CCC[C@@H](NCc1ccc(OCc2cccc(-c3ccccc3)c2C)nc1OC)C(=O)Nc1ccccc1N | 97.5 nM | < 10% | 
17 | CC[C@@H](NCc1ccc(-c2cccc(-c3ccccc3)c2C)nc1OC)C(=O)Nc1ccccc1N | > 1000 nM | < 13.5% | 
18 | COc1nc(-c2cccc(-c3ccccc3)c2C)ccc1Cn1ccc(C(=O)Nc2ccccc2N)c1 | 85.2 nM |  | 
19 | COc1nc(-c2cccc(-c3ccccc3)c2C)ccc1CNCCCCCC(=O)NO | 69.4 nM |  | IC50 [2]: > 10 µM; IC50 [3]: > 100 µM; IC50 [5]: > 10 µM; IC50 [6]: > 10 µM; IC50 [7]: > 10 µM
20 | COc1nc(-c2cccc(-c3ccccc3)c2C)ccc1CNCCCC(=O)NO | 20.8 nM |  | IC50 [3]: > 100 µM; IC50 [4]: > 10 µM
21 | COc1nc(OCc2cccc(-c3ccccc3)c2C)ccc1CNc1ccc(C(=O)NO)cc1 | 100 nM |  | 
22 | COc1nc(-c2cccc(-c3ccccc3)c2C)ccc1CNc1ccc(C(=O)Nc2ccccc2N)s1 | 100 nM | < 10% | 

Row | Compound | IC50 [1] | inhibition [8] | also measured
23 | COc1nc(OCc2cccc(-c3ccccc3)c2C)ccc1CNc1ccc(C(=O)Nc2ccccc2N)cc1 | > 1000 nM |  | 
24 | COc1nc(-c2cccc(-c3ccccc3)c2C)ccc1CNCCCCC(=O)Nc1ccccc1N | 100 nM |  | 
25 | COc1nc(-c2cccc(-c3ccccc3)c2C)ccc1CN1CCN(C(=O)NO)CC1 | 100 nM | < 10% | 
26 | COc1nc(OCc2cccc(-c3ccccc3)c2C)ccc1CNc1cc(C(=O)NO)c[nH]1 | 87.6 nM |  | 
27 | COc1nc(OCc2cccc(-c3ccccc3)c2C)ccc1CNCCCCCC(=O)Nc1ccccc1N | 96.3 nM |  | 
28 | COc1nc(-c2cccc(-c3ccccc3)c2C)ccc1CNC1CCC(C(=O)Nc2ccccc2N)CC1 (stereo not drawn) | > 1000 nM | < 13.5% | 
29 | COc1nc(-c2cccc(-c3ccccc3)c2C)ccc1CN1CCC(C(=O)Nc2ccccc2N)C1 (stereo not drawn) | 99 nM |  | 
30 | COc1nc(OCc2cccc(-c3ccccc3)c2C)ccc1CNCCCCCCC(=O)Nc1ccccc1N | 83.6 nM |  | 
31 | COc1nc(-c2cccc(-c3ccccc3)c2C)ccc1CNc1cccc(C(=O)Nc2ccccc2N)c1 | > 1000 nM | < 10% | 
32 | COc1nc(-c2cccc(-c3ccccc3)c2C)ccc1CNCCCCCCC(=O)Nc1ccccc1N | 100 nM |  | 
33 | COc1nc(-c2cccc(-c3ccccc3)c2C)ccc1CNCCC(=O)NO | 67.6 nM |  | 
34 | CC[C@@H](NCc1ccc(OCc2cccc(-c3ccccc3)c2C)nc1OC)C(=O)Nc1ccccc1N | 100 nM | < 10% | 
35 | COc1nc(OCc2cccc(-c3ccccc3)c2C)ccc1CNCCCC(=O)NO | > 1000 nM |  | 
36 | COc1nc(OCc2cccc(-c3ccccc3)c2C)ccc1CNc1ccc(CC(=O)NO)cc1 | 100 nM |  | 
37 | CCCC[C@@H](NCc1ccc(-c2cccc(-c3ccccc3)c2C)nc1OC)C(=O)Nc1ccccc1N | > 1000 nM | < 13.5% | 
38 | COc1nc(-c2cccc(-c3ccccc3)c2C)ccc1CNCCCC(=O)Nc1ccccc1N | 83.7 nM |  | IC50 [2]: > 10 µM; IC50 [5]: 9.82 µM; IC50 [6]: > 10 µM; IC50 [7]: 7.57 µM
39 | COc1nc(OCc2cccc(-c3ccccc3)c2C)ccc1CNC(C)(C)C(=O)NO | > 1000 nM | < 10% | 
40 | COc1nc(-c2cccc(-c3ccccc3)c2C)ccc1CNc1ccc2cc(C(=O)Nc3ccccc3N)ccc2c1 | > 1000 nM |  | 
41 | COc1nc(-c2cccc(-c3ccccc3)c2C)ccc1CNCCCCCC(=O)Nc1ccccc1N | 88 nM |  | 
42 | COc1nc(-c2cccc(-c3ccccc3)c2C)ccc1CNc1ccc(C(=O)NO)s1 | 100 nM |  | 
43 | COc1nc(-c2cccc(-c3ccccc3)c2C)ccc1CNC1(C(=O)Nc2ccccc2N)CCCC1 | > 1000 nM | < 13.5% | 
